# Laboratory results as given in patent publication US5932717A, “Methods of obtaining DNA-RNA hybrids from sturgeon milt” (priority 1994, dated 1999).
# Tests used:
# [1] = system: MT-4 cell; details: MT-4, 5 ug/ml
# Method: (§1) The cells.--A continuous lymphoblast line of MT-4 cells was used in the study. The cells were propagated in a concentration of 0.2×10^6 cells/ml in RPMI-1640 medium with 15% fetal calf serum, 300 μg/ml L-glutamine and 100 μg/ml gentamycine. The cells were cultivated in suspension in 24-well plates of NUNCLON Company.
# (§2) The viability of the cells was determined by staining with 0.4% trypan blue.
# (§3) Cytotoxicity of the preparations was determined in 24-well plastic plates. Each well of the panel was filled with 1 ml of cell suspension in a concentration 0.2×10^6 cells/ml after which to different wells various doses of chemopreparations were added: 1600, 1000, and 400 μg/ml. After treatment of the cells with the chemopreparations the panels with the cells were placed into a thermostat and incubated at 37° C. in an atmosphere of 5% CO2 and 98% humidity for 3-5 days. At the end of this term the results were read by the number of live and dead cells in the individual wells of the plate.
# [2] = in vitro; details: human, mt-4 cells
# Method: as §1, §2, §3
compound,measurement,setting,value
"Cc1cn([C@H]2C[C@H](N=[N+]=[N-])[C@@H](CO)O2)c(=O)[nH]c1=O [Azidothymidine, azidothymidine]",Cell concentration per ml × 10^6,[1]; cell control 0.56,0.16 per ml × 10^6
same,Proliferation index,[1]; cell control 2.80,1.0
same,viability,[2],17.5%
